Measurements taken from patent publication US20120035206A1, “PREPARATION AND APPLICATION OF NOVEL ANTIBACTERIAL AND ANTICANCER COMPOUNDS AND THEIR DERIVATIVES” (priority 2009, published 2012).
≈ marks a conversion by molar mass, not a printed value.

Tests used:
Type in all cases: cell-based
[1] = tested on: C. albicans; assay: In vitro antibacterial (antifungal) test, two-fold dilution MIC; conditions: Candida albicans, read-out: MIC C. albicas
[2] = tested on: C. parapsilosis; assay: as above; conditions: Lodderomyces parapsilosis, RPMI 1640, culture 2-7 days
[3] = tested on: E. floccosum; assay: as above; conditions: Epidermophyton floccosum, RPMI 1640, culture 2-7 days
[4] = tested on: C. neoformans; assay: as above; conditions: Cryptococcus neoformans, RPMI 1640, culture 2-7 days
[5] = tested on: S. schenekn; assay: as above; conditions: RPMI 1640, culture 2-7 days
[6] = tested on: C. tropicalis; assay: as above; conditions: Candida tropicalis, RPMI 1640, culture 2-7 days
[7] = tested on: A. niger; assay: as above; conditions: Aspergillus niger, RPMI 1640, culture 2-7 days
[8] = tested on: M. gypseum; assay: as above; conditions: Nannizzia gypsea, RPMI 1640, culture 2-7 days
[9] = tested on: C. glabrata; assay: as above; conditions: Nakaseomyces glabratus, RPMI 1640, culture 2-7 days
[10] = tested on: HTB-38HT-29; assay: In vitro anticancer MTT experiment; conditions: concentration 5 ug/ml, 48 h or 72 h, read-out: inhibition ratio HTB-38HT-29
Summary of the method: (§1)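 For this screen, trypsinised log-phase cells were plated and pre-incubated 12 h before receiving compound for 48 h or 72 h; MTT was then added for 4 h and formazan dissolved in DMSO. Percent inhibition at 5 ug/ml was derived from 570 nm absorbance relative to untreated cells and blank medium.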

[11] = tested on: HTB-131MDA-MB-453; assay: In vitro anticancer MTT experiment; conditions: concentration 5 ug/ml, 48 h or 72 h, read-out: inhibition ratio HTB-131MDA-MB-453
Summary of the method: as §1

[12] = tested on: FTC 133; assay: In vitro anticancer MTT experiment; conditions: Homo sapiens, concentration 5 ug/ml, 48 h or 72 h, read-out: inhibition ratio FTC 133
Summary of the method: as §1

[13] = tested on: HTB-95637; assay: In vitro anticancer MTT experiment; conditions: concentration 5 ug/ml, 48 h or 72 h, read-out: inhibition ratio HTB-95637
Summary of the method: as §1

[14] = tested on: B01092; assay: In vitro anticancer MTT experiment; conditions: concentration 5 ug/ml, 48 h or 72 h, read-out: inhibition ratio B01092
Summary of the method: as §1

[15] = tested on: SGC7901; assay: In vitro anticancer MTT experiment; conditions: Homo sapiens, SGC-7901, concentration 5 ug/ml, 48 h or 72 h, read-out: inhibition ratio SGC7901
Summary of the method: as §1

[16] = tested on: A375; assay: In vitro anticancer MTT experiment; conditions: Homo sapiens, A-375, concentration 5 ug/ml, 48 h or 72 h, read-out: inhibition ratio A375
Summary of the method: as §1

[17] = tested on: L428; assay: In vitro anticancer MTT experiment; conditions: Homo sapiens, L-428, concentration 5 ug/ml, 48 h or 72 h, read-out: inhibition ratio L428
Summary of the method: as §1

[18] = tested on: HTB-94; assay: In vitro anticancer MTT experiment; conditions: concentration 5 ug/ml, 48 h or 72 h, read-out: inhibition ratio HTB-94
Summary of the method: as §1

[19] = tested on: AS24391; assay: In vitro anticancer MTT experiment; conditions: concentration 5 ug/ml, 48 h or 72 h, read-out: inhibition ratio AS24391
Summary of the method: as §1

[20] = tested on: L1210; assay: In vitro anticancer MTT experiment; conditions: Mus musculus, concentration 5 ug/ml, 48 h or 72 h, read-out: inhibition ratio L1210
Summary of the method: as §1

[21] = tested on: CRL-1469PANC-1; assay: In vitro anticancer MTT experiment; conditions: concentration 5 ug/ml, 48 h or 72 h, read-out: inhibition ratio CRL-1469PANC-1
Summary of the method: as §1

Structure (SMILES): Cc1ccc2c(c1)C(=O)CSC2 [Compound 13]
- MIC [1]: 64 µg/mL (≈ 359 µM)
- MIC [2]: 32 µg/mL (≈ 180 µM)
- MIC [3]: 32 µg/mL (≈ 180 µM)
- MIC [4]: 64 µg/mL (≈ 359 µM)
- MIC [5]: 64 µg/mL (≈ 359 µM)
- MIC [6]: 16 µg/mL (≈ 89.8 µM)
- MIC [7]: 32 µg/mL (≈ 180 µM)
- MIC [8]: 16 µg/mL (≈ 89.8 µM)
- MIC [9]: 64 µg/mL (≈ 359 µM)
- inhibition at 5 µg/mL [10]: 57.3%
- inhibition at 5 µg/mL [11]: 65.5%
- inhibition at 5 µg/mL [12]: 57.8%
- inhibition at 5 µg/mL [13]: 56.6%
- inhibition at 5 µg/mL [14]: 43.8%
- inhibition at 5 µg/mL [15]: 50.6%
- inhibition at 5 µg/mL [16]: 74.3%
- inhibition at 5 µg/mL [17]: 37.5%
- inhibition at 5 µg/mL [18]: 45.6%
- inhibition at 5 µg/mL [19]: 45.1%
- inhibition at 5 µg/mL [20]: 85.6%
- inhibition at 5 µg/mL [21]: 62.7%
